Read-outs that look alike come from different tables or passages of the source.
Experiments:
[1] = system: CMV-EE210 cell line containing the epigenetically silenced GFP transgene; experiment: Cell-based GFP assay for demethylating activity (reactivation of silenced GFP transgene); conditions: for IC50: read-out: GFP IC50
Description: (§1) The demethylating activity of non-bis-quaternary 4-anilinoquinolines were tested in a cell-based GFP (green fluorescent protein) assay. This assay has a GFP gene regulated by the CMV promoter and is sensitive to the methylation of CpG sites within the promoter. A decrease in methylation resulting from exposure to a methylation inhibitor leads to GFP expression and is readily scored. Specifically, the CMV-EE210 cell line containing the epigenetically silenced GFP transgene was used to assay for reactivation of GFP expression by flow cytometry. CMV-EE210 was made by transfecting NIH 3T3 cells with the pTR-UF/UF1/UF2 plasmid (Zolotuhin et al., 1996), which is comprised of pBS(+) (Stratagene, Inc.) containing a cytomegalovirus (CMV) promoter driving a humanized GFP gene adapted for expression in mammalian cells. After transfection, high-level GFP expressing cells were initially selected by FACS analysis and sorting using a MoFlo cytometer (Cytomation, Inc.). […] To screen for reactivation of CMV-EE210, decitabine (at […]) or a test compound (at a concentration of 30-50 μM) was added to complete medium (phenol red free DMEM (Gibco, Life Technologies) supplemented with 10% fetal bovine serum (Hyclone)). Cells were then seeded to 30% confluence (˜5000 cell/well) in 96 well plate containing the test compounds and grown for three days in at 37° C. in 5% CO2. The plates were examined under a fluorescent microscope using a 450-490 excitation filter (13 filter cube, Leica, Deerfield Ill.). Wells were scored g1 positive if 10% of viable cells express GFP, g2 positive if 30% of viable cells express GFP and g3 if greater than 75% of the viable cells express GFP. GFP IC 50 is the concentration of an inhibitor that (like an IC50) is the dose at which the GFP expression level goes from g3 to g1/2.

CMV-EE210 cell line = experiment: Toxicity (TD50, cell viability) reported with the GFP assay; conditions: for TD50: Dose at which cells are >50% viable
Description: as §1

DNMT1 [2] = molecular target: T1, DNMT1 (Homo sapiens, UniProt P26358); experiment: Selective depletion of DNMT1 by Western blot in treated HCT116 cells; format: cell-based; set-up: Protein extracts (equivalent to 100 μg) were isolated from HCT116 cells; endogenous in cells; host or cells: HCT116; conditions: for % DNMT1 protein level remaining at 5 µM: HCT-116, 5 μM; for % DNMT1 protein level remaining at 10 µM: HCT-116, 10 μM; for % DNMT1 protein level remaining at 100 µM: HCT-116, 100 μM
Source text: Biol. 2005, 11, 4727-41.]. For DNMT1, commercially available antibodies from Santa Cruz or New England Biolabs were used.
Target sequence in this assay (P26358 whole entry): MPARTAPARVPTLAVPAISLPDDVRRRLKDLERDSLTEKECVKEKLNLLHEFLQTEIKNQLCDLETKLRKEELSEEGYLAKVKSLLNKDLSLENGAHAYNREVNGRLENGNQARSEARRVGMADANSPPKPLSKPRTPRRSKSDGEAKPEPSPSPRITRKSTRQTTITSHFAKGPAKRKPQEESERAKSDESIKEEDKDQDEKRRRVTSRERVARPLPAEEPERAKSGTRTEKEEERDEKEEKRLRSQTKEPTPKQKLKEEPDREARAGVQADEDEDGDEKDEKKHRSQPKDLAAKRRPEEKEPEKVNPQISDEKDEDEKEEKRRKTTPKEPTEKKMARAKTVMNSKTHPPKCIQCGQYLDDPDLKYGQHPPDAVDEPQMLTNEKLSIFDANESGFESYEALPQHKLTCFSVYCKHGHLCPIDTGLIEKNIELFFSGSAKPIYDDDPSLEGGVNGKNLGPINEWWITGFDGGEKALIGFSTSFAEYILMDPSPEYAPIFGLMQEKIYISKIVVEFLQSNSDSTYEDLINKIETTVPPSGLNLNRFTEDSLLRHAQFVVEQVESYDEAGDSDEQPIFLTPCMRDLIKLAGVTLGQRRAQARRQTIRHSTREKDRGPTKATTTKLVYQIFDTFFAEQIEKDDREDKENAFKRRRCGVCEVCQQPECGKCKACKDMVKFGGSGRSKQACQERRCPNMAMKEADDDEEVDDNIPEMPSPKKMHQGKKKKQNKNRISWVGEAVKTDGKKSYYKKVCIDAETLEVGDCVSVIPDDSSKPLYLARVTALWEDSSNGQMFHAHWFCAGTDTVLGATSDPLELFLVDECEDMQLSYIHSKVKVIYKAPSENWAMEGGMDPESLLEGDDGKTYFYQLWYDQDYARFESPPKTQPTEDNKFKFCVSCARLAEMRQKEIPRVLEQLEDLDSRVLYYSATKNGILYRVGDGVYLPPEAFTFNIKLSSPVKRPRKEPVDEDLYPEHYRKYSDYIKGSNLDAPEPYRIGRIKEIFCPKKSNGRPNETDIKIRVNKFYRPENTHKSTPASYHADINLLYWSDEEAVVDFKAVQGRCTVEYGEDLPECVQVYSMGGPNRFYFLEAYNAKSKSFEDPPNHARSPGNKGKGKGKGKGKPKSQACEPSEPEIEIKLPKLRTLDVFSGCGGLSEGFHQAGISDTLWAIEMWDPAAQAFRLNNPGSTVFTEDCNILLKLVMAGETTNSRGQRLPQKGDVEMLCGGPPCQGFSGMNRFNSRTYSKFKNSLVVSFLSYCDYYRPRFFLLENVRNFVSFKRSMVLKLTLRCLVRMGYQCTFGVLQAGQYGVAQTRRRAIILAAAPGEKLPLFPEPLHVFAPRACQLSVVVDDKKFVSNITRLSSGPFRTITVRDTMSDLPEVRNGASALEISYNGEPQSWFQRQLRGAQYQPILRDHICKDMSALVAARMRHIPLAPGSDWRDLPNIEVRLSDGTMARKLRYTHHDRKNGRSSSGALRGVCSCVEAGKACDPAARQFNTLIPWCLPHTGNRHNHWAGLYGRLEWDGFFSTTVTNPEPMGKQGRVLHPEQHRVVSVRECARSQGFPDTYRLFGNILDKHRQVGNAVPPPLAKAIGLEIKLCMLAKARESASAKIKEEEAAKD

RKO = experiment: Cell-based growth assay (Cell-Titer-Glo), RKO; conditions: Homo sapiens, 96 hours, read-out: IC50 Values CTG
Description: Cell culture-based assays can be used to evaluate the ability of compounds of the invention to inhibit one or more cellular activities, such as cancer cell growth and/or survival. Numerous cancer cell lines can be obtained from the American Type Culture Collection (ATCC) and other sources. Briefly, cells are seeded into 96-well, tissue-culture treated, opaque white plates (Thermo Electron, Vantaa, Finland), at between 5000 and 10000 cells per well, depending on the speed of cell proliferation, in 100 μl of appropriate growth medium (determined by the ATCC). Cells are then exposed to the appropriate concentration of drug or an equal amount of DMSO (drug diluent) and allowed to grow in its presence for 96 hours. Following this, 100 μl of Cell-Titer-Glo (CTG) reagent (Promega, Inc., Madison, Wis.) is added to each well. Plates are then shaken for 2 minutes at room temperature to allow for cell lysis and incubated for 10 minutes at room temperature to stabilize the luminescent signal. Similar to the Kinase-Glo assay reagent from Promega, this reagent contains both luciferase enzyme and its substrate luciferin. Luciferase, activated by ATP in the cell lysate, catalyzes the conversion of luciferin to oxyluciferin, a reaction which produces light. The amount of light produced is proportionate to the amount of ATP in the cell lysate, which is itself proportional to cell number and gives an index of cellular proliferation.

p16 = experiment: RT-PCR assay for gene expression (p16) in RKO and HCT-116 cells; format: cell-based; conditions: FIG. 1, varying concentrations, forty eight hour incubation
Description: RKO and HCT-116 cells were treated with Cpd. AAA, Cpd. BBB, and Cpd. CCC at varying concentrations. After a forty eight hour incubation cells were harvested for RNA isolation using the Qiagen RNeasy Mini kit. RNA was quantified using a spectrophotometer and 1 μg of RNA was used for cDNA synthesis using the Bio-Rad iScript cDNA Synthesis Kit. RTPCR was performed using SYBER GreenER qPCR SuperMix for iCycler according to the manufacturer's protocol. Primer sequences used are as follows [NT] (SEQ ID NO: 2) and [NT] (SEQ ID NO: 3), MLH-1 [NT] (SEQ ID NO: 4) and [NT] (SEQ ID NO:5), [NT] (SEQ ID NO: 6) and [NT] (SEQ ID NO: 7), GAPDH [NT] (SEQ ID NO:8) and [NT] (SEQ ID NO:9), and […] (SEQ ID NO: 10) and [NT] (SEQ ID NO:11). Samples were analyzed on the iQ5 Multicolor Real-Time PCR Detection System from Bio-Rad. Data analysis was performed using the iQ5 Optical System Software version 2.0, Threshold Cycle (CT) and CT mean values were determined from this software. For each sample there are at least four reactions, two for p16 and two for GAPDH the housekeeping control. The mean CT value from the GAPDH reactions was subtracted from each of the corresponding p16 samples CT giving a value termed Delta CT. Then the Delta CT for the untreated p16 sample is subtracted from all treated Delta CT values giving another value termed Delta Delta CT. […] The duplicate samples are averaged together to get an average Relative Expression for each treatment and the Standard Error is calculated. Relative expression values for p15 and MLH-1 were calculated using the same method. […] AAA, Cpd. BBB, and Cpd. […] Cpd. […] Because the higher levels of p16 seemed to have less effect in causing re-expression of p16 there may be some issues with drug solubility or toxicity at the higher concentrations tested.

DNMT1 [3] = molecular target: T1, DNMT1; experiment: DNMT1 Inhibition Assay (Epigentek DNMT1 Activity/Inhibition kit); format: biochemical; conditions: 100 μM SAM, 2.2 μg/ml DNMT1 enzyme
Description: The DNMT1 Activity/Inhibition kit from Epigentek Inc. (Brooklyn, N.Y.) was used in this experiment (Catalog No. P-3006). In general terms, this assay utilizes an active DNMT1 enzyme incubated with S-adenosylmethionine (SAM) in 96-well plates upon which unmethylated DNA has been immobilized onto the surface of each well. After incubation the reaction wells are washed and probed with a primary anti-methylcytosine antibody, which will bind to methylated DNA. A secondary antibody is then used to detect the primary antibody and creates a signal that is proportional to the amount of methylated DNA in the well. Uninhibited DNMT1 produces a well with high levels of methylated DNA (high signal), whereas inhibited DNMT1 produces a well with low levels of methylation (low signal). The final concentrations of reagents used in this DNMT1 assay were as follows: 100 μM SAM and 2.2 μg/ml DNMT1 enzyme, with inhibitor concentrations typically ranging from 100 μM to 0.781 μM.
More specifically, test compounds were resuspended in 100% DMSO at 3 mM and serially diluted 1:2 in DMSO 8 times. A volume of 100 μl of 1× assay buffer was combined with 12 μl of 1 mM SAM solution and 4 μl of 66.7 μg/mL DNMT1 enzyme in the presence of 4 μl of test compound diluted in DMSO. Controls include enzyme only (no inhibitor, but containing 3.3% DMSO), no enzyme, and compounds having inhibitory activity. A volume of 30 μl of the mixed solution was then added to the substrate-coated wells in triplicate and incubated at 37° C. for 2 hours. Reaction wells are then washed 3× with 150 μl of DNMT wash buffer. The primary antibody (anti-methylcytosine) was diluted 1:1000 in wash buffer, added to each well (50 μl) and incubated at room temperature for 1 hour. Reaction wells were washed again. The secondary antibody was diluted 1:1000 in wash buffer, added to each well (50 μl) and incubated at room temperature for 30 min. The wells were washed for the last time. […] The stop solution was added (50 μl) and the plate was immediately read on a plate reader at 450 nm absorbance. […]
Target sequence in this assay (P26358 whole entry, species assumed): as the sequence (P26358 whole entry) above

CN(C)c1ccc2c(Nc3ccc(NC(=O)c4cccc(Nc5cc[n+](C)cc5)c4)cc3)ccnc2c1 [Cpd. CC, 7-(dimethylamino)-4-[4-({3-[(1-methyl-4-pyridiniumyl)amino]benzoyl}amino)aniline]quinolinium dichloride]
IC50 [1]: 6 µM
melting point: 188 °C (dec.)
toxicity relative to decitabine (CMV-EE210 cell line): less than one-half as toxic as decitabine
TD50 (CMV-EE210 cell line): 25 µM
% DNMT1 protein level remaining at 5 µM (DNMT1 [2]): 65%
% DNMT1 protein level remaining at 10 µM (DNMT1 [2]): 81%
% DNMT1 protein level remaining at 100 µM (DNMT1 [2]): 26%

Cl.O=C(Nc1ccc(Sc2ccnc(O)c2)cc1)c1ccc(Nc2ccnc3ccccc23)cc1 [Cpd. CCC, N-[4-(2-hydroxypyridin-4-ylthio)phenyl]-4-(quinolin-4-ylamino)benzamide hydrochloride]
IC50 (RKO): 6.6 µM
RNA expression levels of p16 (p16): increase the RNA expression levels of p16

O=C(Nc1ccc(SC2CNC(C(=O)O)C2)cc1)c1ccc(Nc2ccnc3ccccc23)cc1 (stereo not shown) [Cpd. DDD, 4-(4-(4-(quinolin-4-ylamino)benzamido)phenylthio)pyrrolidine-2-carboxylic acid]
IC50 (DNMT1 [3]): 1.6 µM

O=C(Nc1ccc(SC2CCNC2)cc1)c1ccc(Nc2ccnc3ccccc23)cc1 (stereo not shown) [Cpd. EEE, 3-(4-(4-(quinolin-4-ylamino)benzamido)phenylthio)pyrrolidine]
IC50 (DNMT1 [3]): 5.5 µM

O=C(Nc1ccc(SC2CCCNC2)cc1)c1ccc(Nc2ccnc3ccccc23)cc1 (stereo not shown) [Cpd. GGG, N-(4-(piperidin-3-ylthio)phenyl)-4-(quinolin-4-ylamino)-benzamide]
IC50 (DNMT1 [3]): 0.31 µM

C[n+]1ccc(Nc2ccc(NC(=O)c3ccc(Nc4ccnc5ccc(N)cc45)cc3)cc2)cc1 [Cpd. L, 4-[4-({4-[(6-ammonio-4-quinolinyl)amino]benzoyl}amino)anilino]-1-methylpyridinium dichloride]
IC50 [1]: 50 µM
GFP Expression Level ([1]; test compound 30-50 μM, decitabine at 11 M (so in the source), three days): g2 (g2 positive if 30% of viable cells express GFP)
melting point: 262 to 266 °C
TD50 (CMV-EE210 cell line): 50 µM
% DNMT1 protein level remaining at 5 µM (DNMT1 [2]): 144%
% DNMT1 protein level remaining at 10 µM (DNMT1 [2]): 145%
% DNMT1 protein level remaining at 100 µM (DNMT1 [2]): 128%

CN(C)c1ccc2nccc(Nc3ccc(C(=O)Nc4ccc(Nc5cc[n+](C)cc5)cc4)cc3)c2c1 [Cpd. O, 4-[4-({4-[(6-dimethylammonio-4-quinolinyl)amino]benzoyl}amino)-anilino]-1-methylpyridinium dichloride]
IC50 [1]: 12.5 µM
melting point: 242 to 246 °C
toxicity relative to decitabine (CMV-EE210 cell line): less than one-half as toxic as decitabine
TD50 (CMV-EE210 cell line): 50 µM
% DNMT1 protein level remaining at 5 µM (DNMT1 [2]): 84%
% DNMT1 protein level remaining at 10 µM (DNMT1 [2]): 150%
% DNMT1 protein level remaining at 100 µM (DNMT1 [2]): 142%

Cc1cc(Nc2ccc(NC(=O)c3ccc(Nc4ccnc5ccc(N(C)C)cc45)cc3)cc2)nc(N)n1.Cl [Cpd. P, N-[4-(2-amino-6-methylpyrimidin-4-ylamino)phenyl]-4-(6-(dimethylamino)quinolin-4-ylamino)benzamide hydrochloride]
IC50 ([1]; dose at which the GFP expression level goes from g3 to g1/2): 50 µM
melting point: 260 to 265 °C
toxicity relative to decitabine (CMV-EE210 cell line): less than one-half as toxic as decitabine
TD50 (CMV-EE210 cell line): 25 µM
% DNMT1 protein level remaining at 5 µM (DNMT1 [2]): 57%
% DNMT1 protein level remaining at 10 µM (DNMT1 [2]): 91%
% DNMT1 protein level remaining at 100 µM (DNMT1 [2]): 11%

CN(C)c1ccc2nccc(Nc3ccc(C(=O)Nc4cccc(Nc5cc[n+](C)cc5)c4)cc3)c2c1 [Cpd. Q, 6-(dimethylamino)-4-[4-({3-[(1-methyl-4-pyridiniumyl)amino]anilino}carbonyl)anilino]quinolinium dichloride]
IC50 [1]: 12.5 µM
melting point: > 300 °C
toxicity relative to decitabine (CMV-EE210 cell line): less than one-half as toxic as decitabine
TD50 (CMV-EE210 cell line): 25 µM
% DNMT1 protein level remaining at 5 µM (DNMT1 [2]): 219%
% DNMT1 protein level remaining at 10 µM (DNMT1 [2]): 93%
% DNMT1 protein level remaining at 100 µM (DNMT1 [2]): 10%

From patent US7939546B2, “Quinoline derivatives for modulating DNA methylation” (SuperGen, Inc., priority 2007, dated 2011)
